The test system of data set [1] is HDACs (HeLa cell nuclear extracts). Nature of the data set: HDAC enzymatic activity, Biomol Color de Lys system. The note with it: 1 hour, 25° C. Type of data set: biochemical. As to the method: (E) an In Vitro Assay which Determines the Ability of a Test Compound to Inhibit HDAC Enzymatic Activity.
HDAC inhibitory activity was assessed using the Biomol Color de Lys system (AK-500, Biomol, Plymouth Meeting, Pa.). Briefly, HeLa cell nuclear extracts were used as a source of HDACs. Different concentrations of test compounds were serially diluted in dimethylsulphoxide (DMSO) and added to HeLa cell nuclear extracts in the presence of a colorimetric artificial substrate. Final assay condition contained 50 mM Tris/Cl, pH 8.0, 137 mM NaCl, 2.7 mM KCl and 1 mM MgCl2. Reactions were carried in room temperature (25° C.) for 1 hour before addition of developer for termination. Relative enzyme activity was measured in the WALLAC Victor II 1420 microplate reader as fluorescence intensity (excitation: 350-380 nm; emission: 440-460 nm). Data were analyzed using GraphPad Prism (v4.0a) with a sigmoidal dose response curve fitting for IC50 calculation.

The next data set has as its target T1, PI3Kα (p110α/p85α) (Homo sapiens, UniProt P42336).
T1 construct: GST (N); made in house; host or cells: Baculovirus-infected Sf9 cells
Nature of the data set: PI3Kα ADP-Glo assay. Type of data set: biochemical. The note with it: 20 μM PIP2, 10 μM ATP, 30 minutes. The procedure: (A) an In Vitro Assay which Determines the Ability of a Test Compound to Inhibit PI3Kα.
Activity of PI3Kα was measured using ADP-Glo assay from Promega. PI3Kα, a complex of N-terminal GST-tagged recombinant full-length human p110α (GenBank, Accession No. U79143) and N-terminal His tagged recombinant full length human p85a (GenBank Accession No. XM—043865) were co-expressed in a Baculovirus infected Sf9 cell expression system. The ADP-Glo assay was performed to measure the amount of ADP generated from ATP hydrolysis coupled with PIP2 phosphorylation by the purified recombinant PI3Kα (p110α/p85α). PI3Kα was incubated with 20 μM PIP2 substrate in the reaction buffer (50 mM HEPES, pH 7.4, 150 mM NaCl, 5 mM MgCl2, 1 mM DTT, 3 uM Naorthovanadate, 10 μM ATP and 0.5% DMSO) for 30 minutes at room temperature. The ADP generated was then detected by ADP-Glo assay from Promega, a luminescent ADP detection assay. The ADP-Glo assay is performed in two steps; first, after the kinase reaction, ADP-Glo Reagent is added to terminate the kinase reaction and deplete the remaining ATP. Second, the Kinase Detection Reagent is added to simultaneously convert ADP to ATP and allow the newly synthesized ATP to be measured using a luciferase/luciferin reaction.

T1 sequence (P42336 whole entry): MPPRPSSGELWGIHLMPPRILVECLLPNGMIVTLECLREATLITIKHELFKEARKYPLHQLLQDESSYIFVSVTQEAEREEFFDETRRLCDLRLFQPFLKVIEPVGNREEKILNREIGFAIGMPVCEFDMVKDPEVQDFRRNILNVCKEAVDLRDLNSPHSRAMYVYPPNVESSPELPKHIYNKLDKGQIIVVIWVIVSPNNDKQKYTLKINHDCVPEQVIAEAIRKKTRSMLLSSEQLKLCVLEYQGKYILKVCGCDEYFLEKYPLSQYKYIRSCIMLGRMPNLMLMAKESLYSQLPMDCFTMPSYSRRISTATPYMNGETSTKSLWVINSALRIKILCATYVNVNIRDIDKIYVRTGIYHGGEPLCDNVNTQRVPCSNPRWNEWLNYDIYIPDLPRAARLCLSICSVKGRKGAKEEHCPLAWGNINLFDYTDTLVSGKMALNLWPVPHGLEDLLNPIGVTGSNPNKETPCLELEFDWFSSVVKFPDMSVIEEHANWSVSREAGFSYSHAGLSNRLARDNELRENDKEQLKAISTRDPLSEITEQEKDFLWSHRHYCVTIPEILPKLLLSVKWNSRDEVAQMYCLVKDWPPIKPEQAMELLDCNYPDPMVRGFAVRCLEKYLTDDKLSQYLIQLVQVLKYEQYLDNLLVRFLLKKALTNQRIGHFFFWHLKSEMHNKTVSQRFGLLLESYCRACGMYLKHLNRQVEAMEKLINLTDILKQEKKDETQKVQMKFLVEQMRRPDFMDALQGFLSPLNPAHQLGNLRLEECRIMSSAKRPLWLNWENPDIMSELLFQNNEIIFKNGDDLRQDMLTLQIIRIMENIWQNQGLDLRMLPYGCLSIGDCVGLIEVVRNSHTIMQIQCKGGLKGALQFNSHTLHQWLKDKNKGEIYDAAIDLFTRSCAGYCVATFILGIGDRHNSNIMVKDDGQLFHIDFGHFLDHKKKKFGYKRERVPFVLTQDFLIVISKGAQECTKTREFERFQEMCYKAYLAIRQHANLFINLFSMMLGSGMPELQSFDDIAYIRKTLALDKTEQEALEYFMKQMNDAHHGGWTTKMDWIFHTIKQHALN
T1 sequence (P27986 whole entry partner): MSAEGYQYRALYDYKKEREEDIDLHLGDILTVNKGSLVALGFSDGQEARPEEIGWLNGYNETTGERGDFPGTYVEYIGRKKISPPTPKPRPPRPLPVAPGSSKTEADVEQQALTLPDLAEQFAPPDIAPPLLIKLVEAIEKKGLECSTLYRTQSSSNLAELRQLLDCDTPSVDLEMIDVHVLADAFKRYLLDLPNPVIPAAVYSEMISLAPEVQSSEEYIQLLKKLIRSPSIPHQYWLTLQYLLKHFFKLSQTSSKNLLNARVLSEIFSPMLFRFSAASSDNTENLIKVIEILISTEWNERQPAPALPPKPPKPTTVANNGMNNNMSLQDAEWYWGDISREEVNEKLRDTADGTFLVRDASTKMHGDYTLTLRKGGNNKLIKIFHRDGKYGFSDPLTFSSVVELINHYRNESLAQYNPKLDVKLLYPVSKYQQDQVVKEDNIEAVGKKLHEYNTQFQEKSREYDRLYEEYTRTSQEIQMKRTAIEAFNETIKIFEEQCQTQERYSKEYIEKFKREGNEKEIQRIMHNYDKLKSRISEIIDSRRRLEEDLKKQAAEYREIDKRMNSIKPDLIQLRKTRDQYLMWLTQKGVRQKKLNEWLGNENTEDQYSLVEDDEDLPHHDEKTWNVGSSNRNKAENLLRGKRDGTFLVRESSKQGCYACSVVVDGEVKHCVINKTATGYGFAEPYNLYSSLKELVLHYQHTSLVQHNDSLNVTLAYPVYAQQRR

Compound `CN(Cc1cc2nc(-c3ccc4c(c3)NCCO4)nc(N3CCOCC3)c2s1)c1ncc(C(=O)NO)cn1` [Compound 182, 2-(((2-(3,4-dihydro-2H-benzo[b][1,4]oxazin-6-yl)-4-morpholinothieno[3,2-d]pyrimidin-6-yl)methyl)(methyl)amino)-N-hydroxypyrimidine-5-carboxamide] returned a melting point of 170 to 183 °C. Moreover, the IC50 in data set [1] was under 100 nM. The IC50 against PI3Kα (p110α/p85α) lay in the range of 1000 to 10000 nM.
As to `CN(C)c1cccc(-c2nc(N3CCOCC3)c3sc(CN(C)c4ncc(C(=O)NO)cn4)cc3n2)c1` [Compound 108, 2-(((2-(3-(dimethylamino)phenyl)-4-morpholinothieno[3,2-d]pyrimidin-6-yl)methyl)(methyl)amino)-N-hydroxypyrimidine-5-carboxamide], the melting point fell in the range of 172 to 175 °C. In addition, in data set [1], the IC50 was under 100 nM. This compound also showed an IC50 against PI3Kα (p110α/p85α) of 1000 to 10000 nM.
In turn, `COCc1cccc(-c2nc(N3CCOCC3)c3sc(CN(C)c4ncc(C(=O)NO)cn4)cc3n2)c1` [Compound 139, N-hydroxy-2-(((2-(3-(methoxymethyl)phenyl)-4-morpholinothieno[3,2-d]pyrimidin-6-yl)methyl)(methyl)amino)pyrimidine-5-carboxamide] displayed a melting point of 178 to 181 °C. Also, in data set [1], the IC50 was under 100 nM. For the same compound, at PI3Kα (p110α/p85α), the IC50 was in the range of 100 to 1000 nM.
The corresponding values for `Nc1ncc(-c2nc(N3CCOCC3)c3sc(NS(=O)(=O)c4ccc(/C=C/C(=O)NO)cc4)cc3n2)cn1` [Compound 217, (E)-3-(4-(N-(2-(2-aminopyrimidin-5-yl)-4-morpholinothieno[3,2-d]pyrimidin-6-yl)sulfamoyl)phenyl)-N-hydroxyacrylamide] are over 300 °C, under 100 nM and under 100 nM.
The compound `CS(=O)(=O)N1CCN(Cc2cc3nc(-c4cccc5nn(CCCCCCC(=O)NO)cc45)nc(N4CCOCC4)c3s2)CC1` [Compound 9, N-hydroxy-7-(4-(6-((4-(methylsulfonyl)piperazin-1-yl)methyl)-4-morpholinothieno[3,2-d]pyrimidin-2-yl)-2H-indazol-2-yl)heptanamide] gave a melting point of 123 to 126 °C. In data set [1], this compound yielded an IC50 of under 100 nM. Besides, the IC50 against PI3Kα (p110α/p85α) is over 10000 nM.
`CS(=O)(=O)N1CCN(Cc2cc3nc(-c4cccc5c4cnn5CCCCC(=O)NO)nc(N4CCOCC4)c3s2)CC1` [Compound 3, N-hydroxy-5-(4-(6-((4-(methylsulfonyl)piperazin-1-yl)methyl)-4-morpholinothieno[3,2-d]pyrimidin-2-yl)-1H-indazol-1-yl)pentanamide] showed a melting point of 139 to 143 °C.
`O=C(CCCCN1CCN(Cc2cc3nc(-c4cccc5[nH]ncc45)nc(N4CCOCC4)c3s2)CC1)NO` [Compound 11, 5-(4-((2-(1H-indazol-4-yl)-4-morpholinothieno[3,2-d]pyrimidin-6-yl)methyl)piperazin-1-yl)-N-hydroxypentanamide] showed a melting point of 125 to 127 °C. Also, in data set [1], the IC50 is 1000 to 10000 nM.
`O=C(O)CN(Cc1cc2nc(-c3cccc4[nH]ncc34)nc(N3CCOCC3)c2s1)c1ncc(C(=O)NO)cn1` [Compound 88]: the results for the IC50 (in data set [1]; against PI3Kα (p110α/p85α)) were 100 to 1000 nM and under 100 nM, respectively.
For the compound `CC(C)C(=O)Nc1ccc(-c2nc(N3CCOCC3)c3sc(CN(C)c4ncc(C(=O)NO)cn4)cc3n2)cc1` [Compound 286], the IC50 is under 100 nM in data set [1] and 100 to 1000 nM on PI3Kα (p110α/p85α).
Taken in the same sequence, the figures for `O=C(CCCCNc1cc2nc(-c3cc(O)ccc3F)nc(N3CCOCC3)c2s1)NO` [Compound 231] were under 100 nM and under 100 nM.
`COc1ncc(-c2nc(N3CCOCC3)c3sc(NS(=O)(=O)c4ccc(/C=C/C(=O)NO)cc4)cc3n2)cn1` [Compound 219]: the IC50 (in data set [1]; at PI3Kα (p110α/p85α)) was under 100 nM throughout.
In the case of `COc1cccc(Nc2nc(-c3cccc4[nH]ncc34)nc3cc(CN(C)c4ncc(C(=O)NO)cn4)sc23)c1` [Compound 166], the IC50 in data set [1] is under 100 nM; against PI3Kα (p110α/p85α) it was over 10000 nM.
For the compound `Nc1ccc(-c2nc(N3CCOCC3)c3sc(CN(CCO)c4ncc(C(=O)NO)cn4)cc3n2)cc1F` [Compound 277], the IC50 (in data set [1]; against PI3Kα (p110α/p85α)) was under 100 nM each time.
For `CN(Cc1cc2nc(-c3cccc(S(N)(=O)=O)c3)nc(N3CCOCC3)c2s1)c1ncc(C(=O)NO)cn1` [Compound 305], the IC50 in data set [1] was under 100 nM; on PI3Kα (p110α/p85α), 100 to 1000 nM.
The corresponding values for `Nc1ccc(-c2nc(N3CCOCC3)c3sc(CNCc4ccc(/C=C/C(=O)NO)cc4)cc3n2)cc1` [Compound 210] are 100 to 1000 nM and 100 to 1000 nM.
With `CNc1ccc(-c2nc(N3CCOCC3)c3sc(NCCCCC(=O)NO)cc3n2)cn1` [Compound 228, N-Hydroxy-5-(2-(6-(methylamino)pyridin-3-yl)-4-morpholino-thieno[3,2-d]pyrimidin-6-ylamino)pentanamide], the half-inhibitory concentration (IC50) (in data set [1]; at PI3Kα (p110α/p85α)) was under 100 nM each time.
For the compound `CNc1ccc(-c2nc(N3CCOCC3)c3sc(CN(CCO)c4ncc(C(=O)NO)cn4)cc3n2)cn1` [Compound 245], the IC50 (in data set [1]; at PI3Kα (p110α/p85α)) was under 100 nM throughout.
`CN(CC1CCN(c2ncc(C(=O)NO)cn2)CC1)c1cc2nc(-c3cccc4[nH]ncc34)nc(N3CCOCC3)c2s1` [Compound 49]: the figures for the IC50 (in data set [1]; on PI3Kα (p110α/p85α)) were 100 to 1000 nM and under 100 nM, respectively.
Turning to `O=C(CCCCNc1cc2nc(-c3cccc4[nH]ncc34)nc(N3CCOCC3)c2s1)NO` [Compound 18], the IC50 is under 100 nM in data set [1] and 100 to 1000 nM on PI3Kα (p110α/p85α).
`Cn1cc(CNc2cc3nc(-c4cccc5[nH]ncc45)nc(N4CCOCC4)c3s2)c2cc(C(=O)NO)ccc21` [Compound 106]: the values for the IC50 (in data set [1]; against PI3Kα (p110α/p85α)) were 1000 to 10000 nM and under 100 nM, respectively.
Turning to `CC1COCC(C)N1c1nc(-c2cccc3[nH]ncc23)nc2cc(CN(C)c3ncc(C(=O)NO)cn3)sc12` (centres unmarked) [Compound 66], the IC50 is under 100 nM in data set [1] and 100 to 1000 nM against PI3Kα (p110α/p85α).
As to `C/C(=N/O)c1ccc(F)c(-c2nc(N3CCOCC3)c3sc(CN(C)c4ncc(C(=O)NO)cn4)cc3n2)c1` [Compound 298], the concentration for half-maximal inhibition (IC50) in data set [1] was under 100 nM; against PI3Kα (p110α/p85α) it was 100 to 1000 nM.
Taken in the same sequence, the figures for `C#CCCN(Cc1cc2nc(-c3cccc4[nH]ncc34)nc(N3CCOCC3)c2s1)c1ncc(C(=O)NO)cn1` [Compound 98] were under 100 nM and under 100 nM.
Taken in the same sequence, the figures for `Nc1ccc(-c2nc(N3CCOCC3)c3sc(CNCc4ccc(C(=O)NO)cc4)cc3n2)cc1` [Compound 209] were under 100 nM and over 10000 nM.
For the compound `CN(Cc1cc2nc(-c3cccc(NS(C)(=O)=O)c3)nc(N3CCOCC3)c2s1)c1ncc(C(=O)NO)cn1` [Compound 288], the IC50 is under 100 nM in data set [1] and over 10000 nM against PI3Kα (p110α/p85α).
As for `CCN(Cc1cc2nc(-c3ccc(N)cc3)nc(N3CCOCC3)c2s1)c1ncc(C(=O)NO)cn1` [Compound 215], the IC50 is under 100 nM in data set [1] and 100 to 1000 nM against PI3Kα (p110α/p85α).
Taken in the same sequence, the figures for `COc1ccc(-c2nc(N3CCOCC3)c3sc(NCCCCC(=O)NO)cc3n2)cn1` [Compound 230] were under 100 nM and under 100 nM.
Taken in the same sequence, the figures for `CN(Cc1cc2cc(-c3cccc4[nH]ncc34)nc(N3CCOCC3)c2s1)c1ncc(C(=O)NO)cn1` [Compound 74] were under 100 nM and 100 to 1000 nM.
As to `CC(C)(Nc1ncc(C(=O)NO)cn1)c1cc2nc(-c3ccc(N)cc3)nc(N3CCOCC3)c2s1` [Compound 269, 2-(2-(2-(4-Aminophenyl)-4-morpholinothieno[3,2-d]pyrimidin-6-yl)propan-2-ylamino)-N-hydroxypyrimidine-5-carboxamide], the IC50 was under 100 nM in data set [1] and 1000 to 10000 nM at PI3Kα (p110α/p85α).
As for `CN(Cc1cc2nc(-c3cccc4[nH]ncc34)nc(N3CCOCC3)c2s1)c1ccc(C(=O)NO)cc1` [Compound 79], the IC50 (in data set [1]; on PI3Kα (p110α/p85α)) was under 100 nM in each case.
Regarding `NC(=O)CN(Cc1cc2nc(-c3cccc4[nH]ncc34)nc(N3CCOCC3)c2s1)c1ncc(C(=O)NO)cn1` [Compound 97], the IC50 (in data set [1]; at PI3Kα (p110α/p85α)) was under 100 nM throughout.
As to `O=C(NO)c1cnc(NCc2cc3cc(-c4cccc5[nH]ncc45)nc(N4CCOCC4)c3s2)nc1` [Compound 73], the IC50 in data set [1] is under 100 nM; against PI3Kα (p110α/p85α), 100 to 1000 nM.

These data come from US20130102595A1 (Curis, Inc., priority 2011, published 2013).
